Eight compounds from patent publication EP4293019A1, “4-SUBSTITUTED (1H-BENZO[D]IMIDAZOL-2-YL)-1H-PYRAZOLES AS BUB1 INHIBITORS USEFUL FOR TREATING CANCERS” (Netherlands Translational Research Center Holding B.V., priority 2022, dated 2023) can be followed below.

One assay addresses T1, hBUB1 (Homo sapiens, UniProt O43683).
T1 construct: purchased Carna Biosciences 05-187
Put plainly: hBUB1 kinase activity assay (biochemical fluorescence polarization assay, IMAP). The following applies: BUB1/BUB3 3.26 nM, ATP 15 µM, BUB1/BUB3 substrate 75 nM; N=2, n=2; read-out: hBUB1 pIC50 (converted). The method, then:
This protocol describes how the Kinase Activity Assay was performed to determine pIC50 values of compounds of general formula (I) against hBUB1.
Assays were performed in 384-well plates (Greiner, black, flat bottom, 781076) by sequential addition (final concentrations are indicated) of inhibitor (5 µL, 0.3 nM - 1 µM or 3 nM - 10 µM), BUB1/BUB3 (5 µL, 3.26 nM, Carna Biosciences (05-187), lot: 15CBS-0644 D), ATP (5 µL, 15 µM) and BUB1/BUB3 substrate (5 µL, 75 nM, Carna Biosciences (05-187MSSU)), all as 4x working solutions. The final concentration of DMSO was 1%. Assay reactions were stopped by addition of IMAP progressive binding reagent (20 µL, 1200x diluted, Molecular Devices (R8155), lot: 3117896). Each assay included the following controls: (i) a background control (treated with vehicle instead of inhibitor and BUB1/BUB3 substrate), (ii) MIN controls (treated with 5 µM BAY1816032 (MedChem Express) as inhibitor, used as 0% BUB1 activity) and (iii) MAX controls (treated with vehicle instead of inhibitor, used as 100% BUB1 activity). All inhibitors were tested in two separate assays and all inhibitor concentrations were tested in duplicate per assay (N=2, n=2).
For each assay, assay buffer (AB) was freshly prepared and consisted of 20 mM HEPES (prepared by diluting 1 M HEPES, pH 7.2), 5 mM MgCl2, 0.01% Tween-20 and 1 mM DTT. Stocks of inhibitors (in DMSO) were diluted in AB to obtain 4x working solutions (4% DMSO) and 5 µL was added to the assay plate. BUB1/BUB3 (3.26 µM (486 µg/mL) in storage buffer) was diluted in AB to obtain 13.0 nM of which 5 µL was added to all wells of the assay plate. The assay plate was centrifuged (1 min, 200 g) and incubated at RT for 30 min. ATP (4 mM in MilliQ) was diluted in AB to obtain 60 µM of which 5 µL was added to each well. BUB1/BUB3 substrate (1 mM) was diluted in 20 mM HEPES (prepared by diluting 1 M HEPES (pH 7.2) in MilliQ) to obtain 80 µM (this solution was freshly prepared every assay) and further diluted in AB to obtain 300 nM after which 5 µL was added to each well of the assay plate except for background control wells. The assay plate was centrifuged (1 min, 200 g) and incubated at RT in the dark for 180 min. IMAP progressive binding buffer A (5x) and IMAP progressive binding buffer B (5x) were mixed in a ratio to obtain 30% buffer A and 70% buffer B, which was subsequently diluted 5x in MilliQ. IMAP progressive binding reagent was diluted 600x in aforementioned mixture of buffer A and B (to obtain a 2x working solution) of which 20 µL was added to each well of the assay plate. The assay plate was centrifuged (1 min, 200 g) and incubated at RT in the dark for 90 min. Fluorescence polarization was measured on a CLARIOstar plate reader using the following settings: (i) optic settings → excitation = F: 482-16, dichroic = F: LP 504, emission = F: 530-40, (ii) optic = top optic, (iii) speed/precision = maximum precision, (iv) focus adjustment was performed for every assay and (v) gain adjustment was done by setting the target mP value to 35 mP for one of the MIN control wells. Data was normalized between MIN and MAX controls and data was plotted using GraphPad Prism 8.0 using "Nonlinear regression (curve fit)" and "log(inhibitor) vs. normalized response - Variable slope" to determine pIC50 values.
Inhibition is indicated as pIC50 ("-" = not measured). Compounds having an activity designated as "A" provided an pIC50 ≥ 7.0 (IC50 ≤100 nM); compounds having an activity designated as "B" provided an 6.3 ≤ pIC50 < 7.0 (100 nM<IC50 ≤ 500 nM); compounds having an activity designated as "C" provided an 6.0 ≤ pIC50 < 6.3 (500 nM < IC50 ≤ 1 µM); compounds having an activity designated as "D" provided an 6.0 < pIC50 ≤ 5.0 (1 µM < IC50 ≤ 10 µM); and compounds having an activity designated as "E" provided an pIC50 < 5.0 (IC50 >10 µM).
(In general: Polarisation of emitted light reports the rotation of a fluorescent probe.)

A further assay concerns U2OS cells. The experiment in a line: Cellular proliferation assay (SRB proliferation assay). Format: cell-based. The settings on record: Homo sapiens, 72 h treatment, SRB staining, N=2, n=3. Here is the method:
This protocol describes how the Cellular Proliferation Assay was performed to determine pIC50 values of compounds of general formula (I) against U2OS cells.
U2OS (human osteosarcoma) cells were purchased at ATCC and were tested on regular basis for mycoplasma contamination. Cultures were discarded after 2-3 months of use. Cells were cultured at 37°C under 7% CO2 in DMEM (Sigma Aldrich, D6546) supplemented with GlutaMAX (2 mM, ThermoFisher), 10% (v/v) heat-inactivated newborn calf serum (Seradigm), penicillin and streptomycin (200 µg/mL each, Duchefa) (complete medium). Medium was refreshed every 2-3 days and cells were passaged by trypsinization twice a week at 80-90% confluence. Cell viability was assessed by Trypan Blue exclusion and cell quantification using a TC20™ Automated Cell Counter (Bio-Rad).
Assays were performed in 96-well plates (Greiner, Cellstar, 655180) by seeding (day 0), treatment (day 1) and subsequent incubation for 72 h. Cells were fixed, stained and staining was subsequently dissolved after which absorbance was measured. Each assay included the following controls: (i) a background control (to which no cells were added), (ii) t0 controls (separate assay plate in which cells were fixed on day 1, used as 0% proliferation), (iii) nontreated controls (present in each assay plate, treated with vehicle and used as 100% proliferation). Cells were treated with different concentrations of indicated inhibitor. All inhibitors were tested in two separate assays and all inhibitor concentrations were tested in triplicate per assay (N=2, n=3).
For each assay, U2OS cells from 10 cm dishes were seeded into 96-well plates (3,000 cells/well) and subsequently incubated overnight to allow for cell adherence. Stocks of inhibitor and vehicle (all in DMSO) were diluted in complete medium to obtain 2x working solutions (1% DMSO). Cell medium was replaced by fresh complete medium (50 µL), treatment was started by addition of the 2x working solutions (50 µL) and plates were incubated at 37°C for 72 h. Cell medium was replaced by fresh serum free medium (100 µL) and cells were fixed by addition of 30 µL 50% (w/v) aq. trichloroacetic acid after which the plates were incubated at 4°C for 60 min. Wells were emptied by shaking the plates upside down after which wells were washed three times with demineralized water and air-dried overnight. To each well, 60 µL of SRB solution (0.4% (w/v) in 1% aq. acetic acid) was added and plates were incubated for 30 min. The excess SRB was removed and the wells were washed three times with 1% aq. acetic acid and air-dried overnight. Bound SRB was redissolved by addition of 150 µL 10 mM TRIS (free-base) and absorbance was measured at 540 nm on a CLARIOstar plate reader. Data was normalized between t0 and nontreated controls and plotted using GraphPad Prism 8.0 using "Nonlinear regression (curve fit)" and "log(inhibitor) vs. normalized response - Variable slope" to determine pIC50 values.
Inhibition is indicated as pIC50 ("-" = not measured). Compounds having an activity designated as "A" provided an pIC50 ≥ 6.0 (IC50 ≤1 µM); compounds having an activity designated as "B" provided an 5.3 ≤ pIC50 < 6.0 (1 µM<IC50 ≤ 5 µM); compounds having an activity designated as "C" provided an 5.0 ≤ pIC50 < 5.3 (5 µM < IC50 ≤ 10 µM); compounds having an activity designated as "D" provided an 5.0 < pIC50 ≤ 4.7 (10 µM < IC50 ≤ 20 µM); and compounds having an activity designated as "E" provided an pIC50 < 4.7 (IC50 >20 µM).
On the technique in general: Sulforhodamine B stains cellular protein and so reports cell mass.

T1 sequence (O43683 whole entry): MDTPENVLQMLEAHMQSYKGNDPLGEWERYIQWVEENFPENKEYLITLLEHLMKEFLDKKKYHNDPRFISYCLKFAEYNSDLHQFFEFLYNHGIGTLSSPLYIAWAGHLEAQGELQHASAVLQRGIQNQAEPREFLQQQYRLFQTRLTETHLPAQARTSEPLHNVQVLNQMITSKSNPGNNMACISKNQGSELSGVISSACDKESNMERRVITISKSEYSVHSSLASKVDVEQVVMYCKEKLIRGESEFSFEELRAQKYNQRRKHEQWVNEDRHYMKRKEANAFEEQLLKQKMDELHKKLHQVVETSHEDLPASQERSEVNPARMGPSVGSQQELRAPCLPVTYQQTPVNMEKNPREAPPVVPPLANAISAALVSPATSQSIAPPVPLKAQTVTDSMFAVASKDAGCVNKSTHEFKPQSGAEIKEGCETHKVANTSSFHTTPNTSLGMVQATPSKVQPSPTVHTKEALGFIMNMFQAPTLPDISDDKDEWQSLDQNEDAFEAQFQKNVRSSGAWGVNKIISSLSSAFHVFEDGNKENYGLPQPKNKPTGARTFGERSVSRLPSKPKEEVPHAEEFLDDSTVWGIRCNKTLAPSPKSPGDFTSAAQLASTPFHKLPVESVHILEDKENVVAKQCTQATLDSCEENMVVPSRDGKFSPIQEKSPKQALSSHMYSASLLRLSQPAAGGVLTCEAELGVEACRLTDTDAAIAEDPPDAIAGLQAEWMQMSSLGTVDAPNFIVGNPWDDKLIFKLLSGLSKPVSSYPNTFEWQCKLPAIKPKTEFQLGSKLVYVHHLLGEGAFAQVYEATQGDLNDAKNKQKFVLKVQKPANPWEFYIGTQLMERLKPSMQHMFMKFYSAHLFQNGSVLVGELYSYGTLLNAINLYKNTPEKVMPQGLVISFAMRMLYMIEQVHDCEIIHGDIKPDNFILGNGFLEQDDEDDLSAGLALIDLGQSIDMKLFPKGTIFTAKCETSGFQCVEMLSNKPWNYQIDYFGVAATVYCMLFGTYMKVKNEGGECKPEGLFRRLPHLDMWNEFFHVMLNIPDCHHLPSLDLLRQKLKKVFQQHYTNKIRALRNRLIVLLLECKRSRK
T1 sequence (O43684 whole entry partner): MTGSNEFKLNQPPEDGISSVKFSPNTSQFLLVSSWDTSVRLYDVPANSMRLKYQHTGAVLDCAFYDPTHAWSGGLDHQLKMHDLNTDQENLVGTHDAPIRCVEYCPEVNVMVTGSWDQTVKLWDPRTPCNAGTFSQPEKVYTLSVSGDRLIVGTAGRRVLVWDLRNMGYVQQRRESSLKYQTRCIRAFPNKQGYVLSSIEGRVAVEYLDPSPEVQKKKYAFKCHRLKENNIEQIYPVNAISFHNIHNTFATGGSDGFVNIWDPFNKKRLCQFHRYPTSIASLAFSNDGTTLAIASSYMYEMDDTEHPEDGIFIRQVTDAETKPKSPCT

Regarding `COc1cnc(-c2cccc(C#N)c2)nc1Nc1c[nH]nc1-c1nc2cc(CN3CCOCC3)ccc2[nH]1` [Compound 54, 3-(5-Methoxy-4-((3-(5-(morpholinomethyl)-1H-benzo[d]imidazol-2-yl)-1H-pyrazol-4-yl)amino)pyrimidin-2-yl)benzonitrile], the IC50 was at most 100 nM at hBUB1 and 10000 to 20000 nM in the assay on U2OS cells.
On the same counts, the results for `COc1cnc(-c2cccc(Cl)c2F)nc1Nc1c[nH]nc1-c1nc2cc(CN3CCOCC3)ccc2[nH]1` [Compound 55, 2-(3-Chloro-2-fluorophenyl)-5-methoxy-N-(3-(5-(morpholinomethyl)-1H-benzo[d]imidazol-2-yl)-1H-pyrazol-4-yl)pyrimidin-4-amine] are at most 100 nM and at most 1000 nM.
For `C#Cc1cccc(-c2ncc(OC)c(Nc3c[nH]nc3-c3nc4cc(CN5CCOCC5)ccc4[nH]3)n2)c1F` [Compound 56, 2-(3-Ethynyl-2-fluorophenyl)-5-methoxy-N-(3-(5-(morpholinomethyl)-1H-benzo[d]imidazol-2-yl)-1H-pyrazol-4-yl)pyrimidin-4-amine], in that order: at most 100 nM and at most 1000 nM.
In the case of `COc1cnc(-c2cc(Cl)ccc2F)nc1Nc1c[nH]nc1-c1nc2cc(CN3CCOCC3)ccc2[nH]1` [Compound 57, 2-(5-Chloro-2-fluorophenyl)-5-methoxy-N-(3-(5-(morpholinomethyl)-1H-benzo[d]imidazol-2-yl)-1H-pyrazol-4-yl)pyrimidin-4-amine], the IC50 is at most 100 nM at hBUB1 and at most 1000 nM in the assay on U2OS cells.
With `C#Cc1ccc(F)c(-c2ncc(OC)c(Nc3c[nH]nc3-c3nc4cc(CN5CCOCC5)ccc4[nH]3)n2)c1` [Compound 58, 2-(5-Ethynyl-2-fluorophenyl)-5-methoxy-N-(3-(5-(morpholinomethyl)-1H-benzo[d]imidazol-2-yl)-1H-pyrazol-4-yl)pyrimidin-4-amine], the IC50 on hBUB1 is at most 100 nM; with U2OS cells it was at most 1000 nM.
For `COc1cnc(-c2c(F)ccc(Cl)c2F)nc1Nc1c[nH]nc1-c1nc2cc(CN3CCOCC3)ccc2[nH]1` [Compound 59, 2-(3-Chloro-2,6-difluorophenyl)-5-methoxy-N-(3-(5-(morpholinomethyl)-1H-benzo[d]imidazol-2-yl)-1H-pyrazol-4-yl)pyrimidin-4-amine], in that order: at most 100 nM and at most 1000 nM.
For `C#Cc1ccc(F)c(-c2ncc(OC)c(Nc3c[nH]nc3-c3nc4cc(CN5CCOCC5)ccc4[nH]3)n2)c1F` [Compound 60, 2-(3-Ethynyl-2,6-difluorophenyl)-5-methoxy-N-(3-(5-(morpholinomethyl)-1H-benzo[d]imidazol-2-yl)-1H-pyrazol-4-yl)pyrimidin-4-amine], in that order: at most 100 nM and at most 1000 nM.
Regarding `COc1cnc(-c2ccc(F)cc2)nc1Nc1c[nH]nc1-c1nc2cc(CN3CCOCC3)ccc2[nH]1` [Compound 61, 2-(4-Fluorophenyl)-5-methoxy-N-(3-(5-(morpholinomethyl)-1H-benzo[d]imidazol-2-yl)-1H-pyrazol-4-yl)pyrimidin-4-amine], the results for the IC50 at hBUB1 and in the assay with U2OS cells were 100 to 501 nM and at most 1000 nM, respectively.
